These are literature values, as cited in patent publication US20250231185A1, “Coronavirus T Cell Epitopes, Megapools and Uses Thereof” (La Jolla Institute for Immunology, priority 2021, published 2025).

This series has as its system CD8+ T cells. The note with it: CD8RE megapool peptides (non-spike SARS-CoV-2 antigens); dominant epitope Yes/No; cited from earlier work.
As to 2919 (FPRGQGVPI) [compound 2919], the Dominant entry is reported as “Yes (more dominant epitopes are defined by being recognized by 3 or more donors/different studies)”.

As for 2920 (YYRRATRRIR) [compound 2920], the Dominant entry was “Yes (more dominant epitopes are defined by being recognized by 3 or more donors/different studies)”.

In the case of 2921 (RIRGGDGKMK) [compound 2921], the Dominant entry is “Yes (more dominant epitopes are defined by being recognized by 3 or more donors/different studies)”. Consider 2922 (KMKDLSPRW) [compound 2922], for which the Dominant result is “Yes (more dominant epitopes are defined by being recognized by 3 or more donors/different studies)”. On to 2923 (LSPRWYFYYL) [compound 2923], for which the Dominant entry is on record as “Yes (more dominant epitopes are defined by being recognized by 3 or more donors/different studies)”. Regarding 2924 (SPRWYFYYL) [compound 2924], the Dominant entry is “Yes (more dominant epitopes are defined by being recognized by 3 or more donors/different studies)”. Consider 2925 (GTGPEAGLPY) [compound 2925], for which the Dominant entry is “Yes (more dominant epitopes are defined by being recognized by 3 or more donors/different studies)”. 2926 (ATEGALNTPK) [compound 2926]: the Dominant entry was “Yes (more dominant epitopes are defined by being recognized by 3 or more donors/different studies)”. For 2927 (NPANNAAIVL) [compound 2927], the Dominant entry is given as “Yes (more dominant epitopes are defined by being recognized by 3 or more donors/different studies)”. Take 2928 (VLQLPQGTTL) [compound 2928]: the Dominant entry was “Yes (more dominant epitopes are defined by being recognized by 3 or more donors/different studies)”. Take 2929 (LALLLLDRL) [compound 2929]: the Dominant result is “Yes (more dominant epitopes are defined by being recognized by 3 or more donors/different studies)”. For the substance 2930 (LLLLDRLNQL) [compound 2930], the Dominant result is recorded as “Yes (more dominant epitopes are defined by being recognized by 3 or more donors/different studies)”. Turning to 2931 (LLLDRLNQL) [compound 2931], the Dominant entry is “Yes (more dominant epitopes are defined by being recognized by 3 or more donors/different studies)”. Consider 2932 (QQQQGQTVTK) [compound 2932], for which the Dominant result is given as “Yes (more dominant epitopes are defined by being recognized by 3 or more donors/different studies)”. As for 2933 (KPRQKRTAT) [compound 2933], the Dominant entry was “Yes (more dominant epitopes are defined by being recognized by 3 or more donors/different studies)”. With 2936 (AQFAPSASAF) [compound 2936], the Dominant entry is reported as “Yes (more dominant epitopes are defined by being recognized by 3 or more donors/different studies)”. On to 2937 (ASAFFGMSR) [compound 2937], for which the Dominant result was “Yes (more dominant epitopes are defined by being recognized by 3 or more donors/different studies)”.

2938 (GMSRIGMEV) [compound 2938]: the Dominant entry is recorded as “Yes (more dominant epitopes are defined by being recognized by 3 or more donors/different studies)”. Regarding 2939 (MEVTPSGTW) [compound 2939], the Dominant entry was “Yes (more dominant epitopes are defined by being recognized by 3 or more donors/different studies)”. For the substance 2940 (MEVTPSGTWL) [compound 2940], the Dominant entry was “Yes (more dominant epitopes are defined by being recognized by 3 or more donors/different studies)”.

Consider 2941 (ILLNKHIDA) [compound 2941], for which the Dominant result is listed as “Yes (more dominant epitopes are defined by being recognized by 3 or more donors/different studies)”. For 2944 (LPAADLDDF) [compound 2944], the Dominant entry is on record as “Yes (more dominant epitopes are defined by being recognized by 3 or more donors/different studies)”.

On to 2945 (FSKQLQQSM) [compound 2945], for which the Dominant result is “Yes (more dominant epitopes are defined by being recognized by 3 or more donors/different studies)”. Take 2946 (VLSEARQHL) [compound 2946]: the Dominant result is given as “Yes (more dominant epitopes are defined by being recognized by 3 or more donors/different studies)”. In the case of 2947 (TVLSFCAFAV) [compound 2947], the Dominant result is “Yes (more dominant epitopes are defined by being recognized by 3 or more donors/different studies)”. Consider 2948 (DLKGKYVQI) [compound 2948], for which the Dominant entry is “Yes (more dominant epitopes are defined by being recognized by 3 or more donors/different studies)”. As for 2949 (YTMADLVYAL) [compound 2949], the Dominant entry is given as “Yes (more dominant epitopes are defined by being recognized by 3 or more donors/different studies)”. Turning to 2950 (TMADLVYAL) [compound 2950], the Dominant entry is “Yes (more dominant epitopes are defined by being recognized by 3 or more donors/different studies)”.

Consider 2951 (LLMPILTLT) [compound 2951], for which the Dominant result is “Yes (more dominant epitopes are defined by being recognized by 3 or more donors/different studies)”. Take 2952 (KLFDRYFKY) [compound 2952]: the Dominant entry was “Yes (more dominant epitopes are defined by being recognized by 3 or more donors/different studies)”. For 2953 (FVDGVPFVV) [compound 2953], the Dominant result was “Yes (more dominant epitopes are defined by being recognized by 3 or more donors/different studies)”. As to 2954 (ISDYDYYRY) [compound 2954], the Dominant entry was “Yes (more dominant epitopes are defined by being recognized by 3 or more donors/different studies)”. For the substance 2955 (RQLLFVVEV) [compound 2955], the Dominant result is on record as “Yes (more dominant epitopes are defined by being recognized by 3 or more donors/different studies)”. In the case of 2956 (VVDKYFDCY) [compound 2956], the Dominant result is recorded as “Yes (more dominant epitopes are defined by being recognized by 3 or more donors/different studies)”. In the case of 2957 (RLYYDSMSY) [compound 2957], the Dominant result is reported as “Yes (more dominant epitopes are defined by being recognized by 3 or more donors/different studies)”.

Take 2958 (MVMCGGSLYV) [compound 2958]: the Dominant entry is recorded as “Yes (more dominant epitopes are defined by being recognized by 3 or more donors/different studies)”. 2959 (DTDFVNEFY) [compound 2959]: the Dominant result is reported as “Yes (more dominant epitopes are defined by being recognized by 3 or more donors/different studies)”. 2960 (FYAYLRKHF) [compound 2960]: the Dominant result is listed as “Yes (more dominant epitopes are defined by being recognized by 3 or more donors/different studies)”. Consider 2961 (RILGAGCFV) [compound 2961], for which the Dominant entry is reported as “Yes (more dominant epitopes are defined by being recognized by 3 or more donors/different studies)”.

With 2963 (LYLQYIRKL) [compound 2963], the Dominant result was “Yes (more dominant epitopes are defined by being recognized by 3 or more donors/different studies)”. As for 2964 (VLQAVGACV) [compound 2964], the Dominant entry was “Yes (more dominant epitopes are defined by being recognized by 3 or more donors/different studies)”. For the substance 2965 (LVLSVNPYV) [compound 2965], the Dominant result is “Yes (more dominant epitopes are defined by being recognized by 3 or more donors/different studies)”. For 2968 (VVYRGTTTY) [compound 2968], the Dominant entry is “Yes (more dominant epitopes are defined by being recognized by 3 or more donors/different studies)”.
